Results: patent publication US5043322A, “Cyclic GRF analogs” (The Salk Institute for Biological Studies, priority 1988, dated 1991)
Where a SMILES comes first, the peptide text is derived from it. Bridges are numbered along the chain shown (N, C = ends). [ ]: non-standard residue; d: D form. NMeY = CN[C@@H](Cc1ccc(O)cc1)C(=O)O; Nle = CCCC[C@H](N)C(=O)O

Tests used:
[1] = tested on: urethane-anesthetized male rats; experiment: in vivo GH secretion after intravenous injection, blood GH by radioimmunoassay; set-up: species or system rat; details: compared with 25 μg hGRF(1-40)--OH
Experimental: In addition to the in vitro tests for secretion of growth hormone, in vivo experiments inject the synthetic peptides intravenously into urethane-anesthetized male rats and determine that they trigger GH secretion. Blood samples are taken immediately prior to, and 10, 45 and 90 minutes after injections, and GH levels in blood are measured by radioimmunoassay. […] Dosages between about 400 nanograms and about 50 micrograms of these cyclic peptides per Kg. of body weight are considered to be effective in causing GH secretion.

[2] = tested on: cells of rat pituitary glands; experiment: in vitro GH release from cultured rat pituitary cells, side-by-side with standard hGRF(1-40)--OH; format: cell-based; details: equimolar concentrations, incubation 3 to 4 hours, ir GH in culture medium by radioimmunoassay
Experimental: All of these synthetic peptides are considered to be biologically active and potentially useful for stimulating the release of GH by the pituitary.
To determine the relative effectiveness of certain representative synthetic peptides to promote the release of growth hormone, in vitro assays are carried out using synthetic hGRF(1-40)--OH as a standard in side-by-side comparison with equimolar concentrations of the representative analogs which have been synthesized. Cultures are used which include cells of rat pituitary glands removed some three to five days previously. Such cultures are considered optimal for the secretion of growth hormone and are used for the comparative testing, in the general manner described in Vale et al. Endocrinology, 91, 562-572 (1972) and as more particularly described in Vale et al. Endocrinology, 112, 553-1555 (1983). Incubation with the substance to be tested is carried out for 3 to 4 hours, and aliquots of the culture medium are removed and processed to measure their contents in immunoreactive GH(ir GH) by a well-characterized radioimmunoassay.

Row | SMILES | in vivo response (blood GH) at 10 minutes ([1]; dosage of 1 μg) | biological potency for the secretion of GH relative to hGRF(1-40)--OH [2] | in vivo response (blood GH) at 10 minutes ([1]; dosage of 5 μg)
1 | CCCC[C@@H]1NC(=O)[C@H]([C@@H](C)CC)NC(=O)[C@H](NC(=O)[C@H](Cc2c[nH]cn2)NC(=O)[C@H](CC(C)C)NC(=O)[C@H](CC(C)C)NC(=O)[C@H](CCCCN)NC(=O)[C@H](CCCNC(=N)N)NC(=O)[C@H](C)NC(=O)[C@H](Cc2ccc(O)cc2)NC(=O)[C@H](CC(C)C)NC(=O)[C@H](CCC(N)=O)NC(=O)[C@H](C)NC(=O)[C@H](CC(C)C)NC(=O)[C@@H](NC(=O)[C@H](CCCNC(=N)N)NC(=O)[C@H](CCCNC(=N)N)NC(=O)[C@H](Cc2ccc(O)cc2)NC(=O)[C@H](CO)NC(=O)[C@H](CO)NC(=O)[C@@H](NC(=O)[C@H](Cc2ccccc2)NC(=O)[C@@H](NC(=O)[C@H](C)NC(=O)[C@H](CC(=O)O)NC(=O)[C@H](C)NC(=O)[C@H](Cc2ccc(O)cc2)NC)[C@@H](C)CC)[C@@H](C)O)[C@@H](C)CC)CSSC[C@@H](C(N)=O)NC(=O)[C@H](CC(N)=O)NC1=O [Example I, [N^a MeTyr^1, Ala^15, D-Cys^25, Nle^27,Cys^29]-rGRF(1-29)-NH2] (H-[NMeY]ADAIFTSSYRRILAQLYARKLLH[dC]I[Nle]NC-NH2; disulfide 25-29) | greater than a 25 μg dose of hGRF(1-40)--OH | – | –
2 | CCCC[C@@H]1NC(=O)[C@H]([C@@H](C)CC)NC(=O)[C@@H](NC(=O)[C@H](Cc2c[nH]cn2)NC(=O)[C@H](CC(C)C)NC(=O)[C@H](CC(C)C)NC(=O)[C@H](CCCCN)NC(=O)[C@H](CCCNC(=N)N)NC(=O)[C@H](C)NC(=O)[C@H](Cc2ccc(O)cc2)NC(=O)[C@H](CC(C)C)NC(=O)[C@H](CCC(N)=O)NC(=O)[C@H](C)NC(=O)[C@H](CC(C)C)NC(=O)[C@@H](NC(=O)[C@H](CCCNC(=N)N)NC(=O)[C@H](CCCNC(=N)N)NC(=O)[C@H](Cc2ccc(O)cc2)NC(=O)[C@H](CO)NC(=O)[C@H](CO)NC(=O)[C@@H](NC(=O)[C@H](Cc2ccccc2)NC(=O)[C@@H](NC(=O)[C@H](C)NC(=O)[C@H](CC(=O)O)NC(=O)[C@H](C)NC(=O)[C@H](Cc2ccc(O)cc2)NC)[C@@H](C)CC)[C@@H](C)O)[C@@H](C)CC)CSSC[C@H](C(N)=O)NC(=O)[C@H](CC(N)=O)NC1=O [Example IA, [N^a MeTyr^1,Ala^15,Cys^25,Nle^27,D-Cys^29]-rGRF(1-29)-NH2] (H-[NMeY]ADAIFTSSYRRILAQLYARKLLHCI[Nle]N[dC]-NH2; disulfide 25-29) | – | about twice | greater than a 25 μg dose of hGRF(1-40)--OH
